In patent US9526730B2, “Use of a DPP-4 inhibitor in podocytes related disorders and/or nephrotic syndrome” (Boehringer Ingelheim International GmbH, priority 2012, dated 2016):

How the values were obtained:
diabetic db/db mice = experiment: Diabetic nephropathy model: male diabetic db/db mice treated for 12 weeks (renal histology, immunohistochemistry, albumin excretion); type: in vivo, mouse; conditions: for effect on fasted or post-prandial glucose levels / Podocalyxin expression (glomerular staining score 0-3): 12 weeks; for Podocalyxin expression (glomerular staining score 0-3): linagliptin 3 mg/kg/day, enalapril 20 mg/kg/day, db/db vehicle 1.59±0.2, db/+ 2.65±0.1; for glomerular mesangial matrix expansion compared with diabetic vehicle / tubulointerstitial fibrosis compared with diabetic vehicle: histology
Description: The expression of podocalyxin is analyzed by immunohistochemistry using a podocalyxin specific antibody. Kidney sections from male diabetic db/db mice (10 weeks old at start and treated for 3 months) in the following groups are analyzed:
Diabetic control (n=10), linagliptin 3 mg/kg (n=8), enalapril 20 mg/kg (n=10) and heterozygous control mice (n=8).
All of the evaluations of the glomerular staining intensities are done semiquantitatively by two different experts of kidney pathology blinded for the slides.
The predefined scoring gradient is 0, 1, 2, and 3. 0 means no expression, whereas 3 is given when expression is highest. Group means are compared with a non-parametric test. P values less than 0.05 are considered significant.
Diabetic nephropathy is the main cause of end-stage renal disease. This study investigated the effects of linagliptin on diabetic nephropathy in severe insulin-resistant and old db/db mice as a model for diabetic nephropathy. Male diabetic db/db mice (10 weeks) were divided into 3 groups and treated for 12 weeks with vehicle (n=10), linagliptin 3 mg/kg/day (n=8), or the angiotensin converting enzyme (ACE) inhibitor enalapril 20 mg/kg/day (n=10).
Heterozygous db/+ mice treated with vehicle were used as controls (n=8). Levels of glucose, triglycerides, insulin, cystatin C and creatinine were analyzed in serum and urine samples at baseline and monthly thereafter. Body weight, urinary albumin excretion and OGTT were monitored periodically.
Renal histology (glomerulosclerosis, tubulointerstitial fibrosis) and expression of the sialoglycoprotein podocalyxin (a marker of podocyte integrity in the glomeruli, marker for glomerular damage), glucagon-like peptide 1 receptor (GLP-1R), alpha-smooth muscle actin and type I collagen were evaluated at the end of the study.

[1] = tested on: rats with 5/6 nephrectomy; experiment: Rat model of chronic kidney disease (5/6 nephrectomy), 130 days; conditions: for glomerulosclerosis (glomerulosclerosic index) / decrease of glomerular size vs PBO-treated 5/6 NX rats / decrease of interstitial fibrosis vs PBO-treated 5/6 NX rats: 130 days; for osteopontin vs PBO-treated 5/6 NX rats: plasma biomarker
[2] = Pooled analysis of seven placebo-controlled trials: UACR in elderly (>=65 years) T2D patients with diabetic nephropathy (set 2); type: in vivo, human
Description: (§1) Seven randomised, double-blind, placebo-controlled trials (duration 24-52 weeks) of linagliptin (5 mg q.d.) as monotherapy or add-on to various glucose-lowering background therapies had data available for urinary albumin-to-creatinine ratio (UACR) and were eligible for this analysis (n=4113). Data after 24 weeks of treatment were generated to allow pooling and two sets were defined: 1) Diabetic nephropathy in earlier stages of T2D (with and without oral glucose-lowering background therapies, such as e.g. linagliptin monotherapy, linagliptin add-on to metformin or linagliptin add-on to metformin plus a sulphonylurea, or linagliptin plus metformin initial combination): participants from four 24-week pivotal phase III trials if they had persistent albuminuria, defined as 30≦UACR≦3000 mg/g (eGFR>30 ml/min/1.73 m^2) and stable treatment with an angiotensin-converting enzyme inhibitor (ACEi) or angiotensin II receptor blocker (ARB) at baseline (ongoing treatment with ACEi or ARB); 2) Diabetic nephropathy in elderly patients (various glucose-lowering background therapies including insulin, such as e.g. linagliptin monotherapy, linagliptin add-on to metformin or linagliptin add-on to metformin plus a sulphonylurea, or linagliptin plus metformin initial combination, or linagliptin in combination with basal insulin): patients from all seven trials, fulfilling UACR criteria 30≦UACR≦3000 mg/g (eGFR>30 ml/min/1.73 m^2) and aged ≧65 years (with or without ongoing treatment with ACEi or ARB). The endpoint in both sets was the percentage change in geometric mean UACR after 24 weeks.

[3] = Pooled analysis of four 24-week placebo-controlled trials: albuminuria (UACR) in T2D patients with early diabetic nephropathy on stable ACE/ARB (set 1); type: in vivo, human
Excerpt: Despite optimal therapy, people with type 2 diabetes (T2D) remain at high risk for kidney damage, manifest as albuminuria, and many develop progressive renal failure. Further, despite optimal therapy with inhibitors of the renin-angiotensin-aldosterone systeme (RAAS), patients with type 2 diabetes mellitus (T2DM) remain at an increased risk of progressive renal failure and cardiovascular disease, for which album inuria has emerged as a predictive biomarker. Linagliptin, a DPP-4 inhibitor, has previously shown evidence of albumin lowering on top of telmisartan in mice. We explored the clinical effect of linagliptin on albuminuria in T2D patients with early diabetic nephropathy. Four randomized, double-blind, 24-week, placebo-controlled trials of linagliptin (5 mg qd) on no, mono, or dual oral glucose-lowering background therapy (such as e.g. linagliptin monotherapy, linagliptin add-on to metformin or linagliptin add-on to metformin plus a sulphonylurea, or linagliptin plus metformin initial combination) had data available for urinary albumin-to-creatinine ratio (UACR) and were pooled for analysis (n=2472). Participants were included in this analysis if they had: i) 30≦UACR≦3000 mg/g creatinine; ii) stable treatment with ACE/ARBs ≧4 weeks prior and during the trial; and iii) eGFR>30 ml/min/1.73 m^2. The endpoint was the percentage change in geometric mean UACR. In this analysis, 492 (19.9%) patients met UACR and eGFR thresholds of whom 46% received stable ACE/ARB therapy (linagliptin n=168; placebo n=59). Mean baseline A1C and median UACR were 8.2% vs 8.5% and 76 vs 78 mg/g creatinine for the linagliptin and placebo groups, respectively. After 24 weeks, placebo-corrected changes in A1C and FPG were −0.71% and −26 mg/dl, respectively (both p<0.0001). […] Overall, kidney function and blood pressure were unchanged although more patients on placebo received new anti-hypertensive drugs (17% vs 11% with linagliptin). […] Linagliptin may have kidney-protective properties beyond glucose-lowering effects. This protective effect may be independent of race. Linagliptin may be useful for treating or lowering albuminuria on top of standard of care of angiotensin-converting enzyme (ACE) inhibition or angiotensin II receptor blockade (ARB) in T2DM patients with early diabetic nephropathy.
as §1

[4] = Pharmacokinetics of BI 1356, multiple oral doses once daily for 12 days in patients with type 2 diabetes; conditions: for feT,ss: steady state (Day 12); for feT,ss / fe0-24: gMean; for fe0-24: fraction excreted in urine
[5] = Meta-analysis of 13 phase 3 placebo-controlled trials: renal safety and outcomes in 5466 patients with type 2 diabetes
Description: The aim of this study was to evaluate renal safety/outcomes with linagliptin in phase 3, randomized, double-blind, placebo-controlled trials (≧12 wks).

[6] = Safety and tolerability in people with type 2 diabetes
[7] = LIN 0.083 mg/kg in chow, TEL 5 mg/kg/d in drinking water
[8] = linagliptin 5 mg qd, after 24 weeks, set 1

## CCOC(=O)[C@H](CCc1ccccc1)N[C@@H](C)C(=O)N1CCC[C@H]1C(=O)O [enalapril, reference compound]
Diabetic db/db mice
  effect on fasted or post-prandial glucose levels: limited effects
  Podocalyxin expression (glomerular staining score 0-3): 2.4±0.2
Diabetic db/db mice; p<0.05
  glomerular mesangial matrix expansion compared with diabetic vehicle: reduced almost to control levels
  tubulointerstitial fibrosis compared with diabetic vehicle: reduced almost to control levels

## CCCc1nc2c(C)cc(-c3nc4ccccc4n3C)cc2n1Cc1ccc(-c2ccccc2C(=O)O)cc1 [telmisartan, reference compound]
[1]; 5/6 NX rats
  Blood pressure lowering: 31 mmHg
  TGF-β expression: significantly decreases
  glomerulosclerosis (glomerulosclerosic index): trend towards decreased
[1]; [7]
  decrease of urinary albumin/creatinine ratio vs PBO-treated 5/6 NX rats: 92%
  decrease of glomerular size vs PBO-treated 5/6 NX rats: not significantly
  decrease of interstitial fibrosis vs PBO-treated 5/6 NX rats: 24%
[1]
  osteopontin vs PBO-treated 5/6 NX rats: significantly decreases

## CC#CCn1c(N2CCC[C@@H](N)C2)nc2c1c(=O)n(Cc1nc(C)c3ccccc3n1)c(=O)n2C [linagliptin]
[2]; all seven studies
  blood pressure and renal function: not affected to a clinically meaningful extent
[2]; as early as
  treatment duration at which overall UACR effect occurs: 12 weeks
[2]; linagliptin 5 mg q.d., 24 weeks, set 2
  reduction of UACR versus placebo (trend): −25%
[2]; linagliptin 5 mg q.d., 24 weeks, set 2, aged >=65 years
  lowering of adjusted UACR: 30%
[3]; 24 weeks
  kidney function and blood pressure: unchanged
[3]; linagliptin 5 mg qd, 24 weeks, on stable ACE/ARB, set 1
  lowering of adjusted UACR (geometric mean): 33%
[3]; linagliptin 5 mg qd, 24 weeks, set 1
  between group difference vs placebo in UACR: −29%
[3]; [8]
  placebo-corrected change in A1C (HbA1c): −0.71%
  placebo-corrected change in FPG: -26 mg/dL
  placebo-corrected change in fasting plasma glucose: -1.4 mmol/L
[4]; 1 mg oral once daily
  feT,ss: 3.34%
[4]; 2.5 mg oral once daily
  feT,ss: 3.06%
  fe0-24: 0.139%
[4]; 5 mg oral once daily
  feT,ss: 6.27%
  fe0-24: 0.453%
[4]; 10 mg oral once daily
  feT,ss: 3.22%
  fe0-24: 0.919%
[4]; doses above 1 mg once daily
  mean accumulation ratio RA,AUC: ≤ 1.4
[4]; human, in vivo
  excretion of unchanged drug: primarily excreted unchanged via the bile
[4]; therapeutic oral dose levels
  excretion via the kidney: < 7 % of the administered oral dose
  main route of excretion: mainly excreted via the liver
[5]; linagliptin 5 mg qd, n=3505, placebo 306
  patients with composite renal endpoint events (number): 448 patients
[5]; linagliptin 5 mg qd, placebo 15.6%
  patients with composite renal endpoint events (proportion): 12.8%
[5]; patients <65 yrs
  HR for the composite endpoint: 0.77
[5]; patients >65 yrs
  HR for the composite endpoint: 1.04
[5]; vs placebo
  RR change: ARF: −7%
  RR change: death: −23%
  RR change: macroalbuminuria: −12%
  RR change: microalbuminuria: −15%
  RR change: new onset of CKD: −56%
  RR change: worsening of CKD: −24%
[1]; 5/6 NX rats
  Blood pressure lowering: unaffected
  glomerulosclerosis (glomerulosclerosic index): trend towards decreased
[1]; [7]
  decrease of glomerular size vs PBO-treated 5/6 NX rats: 18%
  decrease of interstitial fibrosis vs PBO-treated 5/6 NX rats: 48%
[1]
  osteopontin vs PBO-treated 5/6 NX rats: decreases
[1]; rat, in vivo
  plasma concentration of B2M vs PBO-treated 5/6 NX rats: decreases
  plasma concentration of TIMP-1 vs PBO-treated 5/6 NX rats: decreases
Diabetic db/db mice
  expression of α-smooth muscle actin-positive myofibroblasts in interstitium and glomeruli: normalized
  effect on fasted or post-prandial glucose levels: limited effects
  Podocalyxin expression (glomerular staining score 0-3): 2.3±0.2
Diabetic db/db mice; blood glucose independent
  loss of podocytes (podocalyxin staining): significantly reduces
Diabetic db/db mice; p<0.05
  glomerular mesangial matrix expansion compared with diabetic vehicle: reduced almost to control levels
  tubulointerstitial fibrosis compared with diabetic vehicle: reduced almost to control levels
  Urinary albumin excretion rates compared with enalapril-treated mice: significantly decreased
  tubulointerstitial fibrosis compared with enalapril-treated mice: significantly decreased
Diabetic db/db mice; linagliptin 3 mg/kg/day 12 weeks, vehicle db/db 1.67±0.07, healthy 2.15±0.1
  GLP-1R expression in the glomeruli (immunohistochemical staining): 1.90±0.04
[6]
  safety and tolerability: placebo-like
